Consider one substance from patent publication US6939855B2, “Anti-inflammatory compositions and method” (Elan Pharmaceuticals, Inc., priority 1997, dated 2005).

The assay relates to human neutrophils. Nature of the assay: Expression of alpha-9 integrin on human neutrophils following activation. The conditions noted are these: compared to isotype control marker (FIG. 2). The assay is classed as cell-based. As for the experimental part:
In this experiment, alpha-9 subunit, alpha-4 subunit and beta-1 subunit were measured after reacting human neutrophils with fluorescently labeled antibodies specifically reactive with each of the foregoing subunits.
Formyl-Met-Leu-Phe (fMLP) is an activation factor that is involved in inflammation. […] This increased expression is consistent with alpha-9 involvement in activation of neutrophils during inflammation.

For Formyl-Met-Leu-Phe [fMLP], the “alpha-9 integrin expression following activation” value was “significantly and selectively increased”.
